Measurements as given in PubChem BioAssay AID1963434 (Molecular Pharmacology Branch, DTP, NCI, 2024).

Test system: 755483-174-R-J1-PDC complex spheroid growth, percent test/control
Test: Anticancer human tumor 755483-174-R-J1-PDC patient-derived rhabdomyosarcoma cell line growth inhibition [Asc]
Conditions: for IC50: curve of first compound; for viability, T/C: stronger effect = lower value
Procedure, shortened: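 Tumor cells were grown as multicellular spheroids with stromal HUVEC and mesenchymal stem cells and treated singly or in combination. Concentrations fell in half-log steps from the clinical Cmax, or from 10 microM where none was known.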

[1] = second compound 0.01 µM, first compound 0.0316 µM
[2] = second compound 0.01 µM, first compound 0.1 µM
[3] = second compound 0.01 µM, first compound 0.316 µM
[4] = second compound 0.01 µM, first compound 1 µM
[5] = second compound 0.01 µM, first compound 3.16 µM
[6] = second compound 0.01 µM, first compound 10 µM
[7] = second compound 0.0316 µM, first compound 0.0316 µM
[8] = second compound 0.0316 µM, first compound 0.1 µM
[9] = second compound 0.0316 µM, first compound 0.316 µM
[10] = second compound 0.0316 µM, first compound 1 µM
[11] = second compound 0.0316 µM, first compound 3.16 µM
[12] = second compound 0.0316 µM, first compound 10 µM
[13] = second compound 0.1 µM, first compound 0.0316 µM
[14] = second compound 0.1 µM, first compound 0.1 µM
[15] = second compound 0.1 µM, first compound 0.316 µM
[16] = second compound 0.1 µM, first compound 1 µM
[17] = second compound 0.1 µM, first compound 3.16 µM
[18] = second compound 0.1 µM, first compound 10 µM
[19] = second compound 0.316 µM, first compound 0.0316 µM
[20] = second compound 0.316 µM, first compound 0.1 µM
[21] = second compound 0.316 µM, first compound 0.316 µM
[22] = second compound 0.316 µM, first compound 1 µM
[23] = second compound 0.316 µM, first compound 3.16 µM
[24] = second compound 0.316 µM, first compound 10 µM
[25] = second compound 1 µM, first compound 0.0316 µM
[26] = second compound 1 µM, first compound 0.1 µM
[27] = second compound 1 µM, first compound 0.316 µM
[28] = second compound 1 µM, first compound 1 µM
[29] = second compound 1 µM, first compound 3.16 µM
[30] = second compound 1 µM, first compound 10 µM
[31] = second compound 0.01 µM, first compound 0.00949 µM
[32] = second compound 0.01 µM, first compound 0.03 µM
[33] = second compound 0.01 µM, first compound 0.0949 µM
[34] = second compound 0.01 µM, first compound 0.3 µM
[35] = second compound 0.01 µM, first compound 0.949 µM
[36] = second compound 0.01 µM, first compound 3 µM
[37] = second compound 0.0316 µM, first compound 0.00949 µM
[38] = second compound 0.0316 µM, first compound 0.03 µM
[39] = second compound 0.0316 µM, first compound 0.0949 µM
[40] = second compound 0.0316 µM, first compound 0.3 µM
[41] = second compound 0.0316 µM, first compound 0.949 µM
[42] = second compound 0.0316 µM, first compound 3 µM
[43] = second compound 0.1 µM, first compound 0.00949 µM
[44] = second compound 0.1 µM, first compound 0.03 µM
[45] = second compound 0.1 µM, first compound 0.0949 µM
[46] = second compound 0.1 µM, first compound 0.3 µM
[47] = second compound 0.1 µM, first compound 0.949 µM
[48] = second compound 0.1 µM, first compound 3 µM
[49] = second compound 0.316 µM, first compound 0.00949 µM
[50] = second compound 0.316 µM, first compound 0.03 µM
[51] = second compound 0.316 µM, first compound 0.0949 µM
[52] = second compound 0.316 µM, first compound 0.3 µM
[53] = second compound 0.316 µM, first compound 0.949 µM
[54] = second compound 0.316 µM, first compound 3 µM
[55] = second compound 1 µM, first compound 0.00949 µM
[56] = second compound 1 µM, first compound 0.03 µM
[57] = second compound 1 µM, first compound 0.0949 µM
[58] = second compound 1 µM, first compound 0.3 µM
[59] = second compound 1 µM, first compound 0.949 µM
[60] = second compound 1 µM, first compound 3 µM
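Further: spheroids exposed to compounds for seven days before readout.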

C#Cc1c(F)ccc2cc(O)cc(-c3ncc4c(N5CC6CCC(C5)N6)nc(OCC56CCCN5CC(F)C6)nc4c3F)c12 (stereo not given) + CNC(C)C(=O)NC1CN(S(=O)(=O)c2cccc(S(=O)(=O)N3CCC4CCC(C(=O)NC(c5ccccc5)c5ccccc5)N4C(=O)C(NC(=O)C(C)NC)C3)c2)CCC2CCC(C(=O)NC(c3ccccc3)c3ccccc3)N2C1=O
IC50 (second compound 0.01 µM): < 31.6 nM
IC50 (second compound 0.0316 µM): < 31.6 nM
IC50 (second compound 0.1 µM): < 31.6 nM
IC50 (second compound 0.316 µM): < 31.6 nM
IC50 (second compound 1 µM): < 31.6 nM
viability, T/C [1]: 46.4%
viability, T/C [2]: 44.1%
viability, T/C [3]: 55.5%
viability, T/C [4]: 54.6%
viability, T/C [5]: 36.6%
viability, T/C [6]: 2.18%
viability, T/C [7]: 33.2%
viability, T/C [8]: 36%
viability, T/C [9]: 38.7%
viability, T/C [10]: 48.3%
viability, T/C [11]: 36.4%
viability, T/C [12]: 2.06%
viability, T/C [13]: 35.9%
viability, T/C [14]: 42.6%
viability, T/C [15]: 54%
viability, T/C [16]: 28.7%
viability, T/C [17]: 24.8%
viability, T/C [18]: 1.01%
viability, T/C [19]: 32.1%
viability, T/C [20]: 33.9%
viability, T/C [21]: 30.9%
viability, T/C [22]: 34.9%
viability, T/C [23]: 13.9%
viability, T/C [24]: 0.34%
viability, T/C [25]: 17.1%
viability, T/C [26]: 31.2%
viability, T/C [27]: 31.7%
viability, T/C [28]: 22.8%
viability, T/C [29]: 10.5%
viability, T/C [30]: 0.34%

C=C(F)C(=O)N1CCN(c2nc(OCC3CCCN3C)nc3c2CCN(c2cccc4cccc(Cl)c24)C3)CC1CC#N (stereo not given) + CNC(C)C(=O)NC1CN(S(=O)(=O)c2cccc(S(=O)(=O)N3CCC4CCC(C(=O)NC(c5ccccc5)c5ccccc5)N4C(=O)C(NC(=O)C(C)NC)C3)c2)CCC2CCC(C(=O)NC(c3ccccc3)c3ccccc3)N2C1=O
IC50 (second compound 0.01 µM): 585 nM
IC50 (second compound 0.0316 µM): 336 nM
IC50 (second compound 0.1 µM): 428 nM
IC50 (second compound 0.316 µM): < 31.6 nM
IC50 (second compound 1 µM): < 31.6 nM
viability, T/C [1]: 68.4%
viability, T/C [2]: 62%
viability, T/C [3]: 58.9%
viability, T/C [4]: 40.6%
viability, T/C [5]: 3.47%
viability, T/C [6]: 0.12%
viability, T/C [7]: 48.5%
viability, T/C [8]: 56.7%
viability, T/C [9]: 50.1%
viability, T/C [10]: 32%
viability, T/C [11]: 2.46%
viability, T/C [12]: 0.12%
viability, T/C [13]: 40%
viability, T/C [14]: 63.9%
viability, T/C [15]: 66.2%
viability, T/C [16]: 31.1%
viability, T/C [17]: 17.1%
viability, T/C [18]: 0.12%
viability, T/C [19]: 26.6%
viability, T/C [20]: 30.6%
viability, T/C [21]: 38.7%
viability, T/C [22]: 23.3%
viability, T/C [23]: 2.01%
viability, T/C [24]: 0.12%
viability, T/C [25]: 29.7%
viability, T/C [26]: 34.6%
viability, T/C [27]: 21.6%
viability, T/C [28]: 13.1%
viability, T/C [29]: 0.83%
viability, T/C [30]: 0.19%

C=CC(=O)N1CCN(c2nc(=O)n(-c3c(C)ccnc3C(C)C)c3nc(-c4c(O)cccc4F)c(F)cc23)C(C)C1 (stereo not given) + CNC(C)C(=O)NC1CN(S(=O)(=O)c2cccc(S(=O)(=O)N3CCC4CCC(C(=O)NC(c5ccccc5)c5ccccc5)N4C(=O)C(NC(=O)C(C)NC)C3)c2)CCC2CCC(C(=O)NC(c3ccccc3)c3ccccc3)N2C1=O
IC50 (second compound 0.01 µM): > 10000 nM
IC50 (second compound 0.0316 µM): > 10000 nM
IC50 (second compound 0.1 µM): 31.6 nM
IC50 (second compound 0.316 µM): < 31.6 nM
IC50 (second compound 1 µM): < 31.6 nM
viability, T/C [1]: 80.2%
viability, T/C [2]: 89.3%
viability, T/C [3]: 75.2%
viability, T/C [4]: 61.4%
viability, T/C [5]: 80.5%
viability, T/C [6]: 63%
viability, T/C [7]: 51.8%
viability, T/C [8]: 77.5%
viability, T/C [9]: 61.4%
viability, T/C [10]: 56.6%
viability, T/C [11]: 75.1%
viability, T/C [12]: 37.7%
viability, T/C [13]: 53.4%
viability, T/C [14]: 54.7%
viability, T/C [15]: 44.6%
viability, T/C [16]: 59.2%
viability, T/C [17]: 69.8%
viability, T/C [18]: 51.1%
viability, T/C [19]: 38.4%
viability, T/C [20]: 36.2%
viability, T/C [21]: 44.4%
viability, T/C [22]: 61.1%
viability, T/C [23]: 46.2%
viability, T/C [24]: 43.9%
viability, T/C [25]: 32.4%
viability, T/C [26]: 28.9%
viability, T/C [27]: 33.6%
viability, T/C [28]: 35.5%
viability, T/C [29]: 39.9%
viability, T/C [30]: 36%

CCN1C(C(=O)NC23CCC(C(=O)O)(CC2)CC3)C(c2cccc(Cl)c2F)C2(C(=O)Nc3cc(Cl)ccc32)C12CCCCC2 (stereo not given) + CNC(C)C(=O)NC1CN(S(=O)(=O)c2cccc(S(=O)(=O)N3CCC4CCC(C(=O)NC(c5ccccc5)c5ccccc5)N4C(=O)C(NC(=O)C(C)NC)C3)c2)CCC2CCC(C(=O)NC(c3ccccc3)c3ccccc3)N2C1=O
IC50 (second compound 0.01 µM): 148 nM
IC50 (second compound 0.0316 µM): < 9.49 nM
IC50 (second compound 0.1 µM): < 9.49 nM
IC50 (second compound 0.316 µM): < 9.49 nM
IC50 (second compound 1 µM): < 9.49 nM
viability, T/C [31]: 56.2%
viability, T/C [32]: 73.9%
viability, T/C [33]: 55%
viability, T/C [34]: 39.3%
viability, T/C [35]: 48.2%
viability, T/C [36]: 38.6%
viability, T/C [37]: 38.6%
viability, T/C [38]: 45.8%
viability, T/C [39]: 50%
viability, T/C [40]: 49.2%
viability, T/C [41]: 44.2%
viability, T/C [42]: 28.9%
viability, T/C [43]: 27.9%
viability, T/C [44]: 23.6%
viability, T/C [45]: 39.4%
viability, T/C [46]: 28.9%
viability, T/C [47]: 32.6%
viability, T/C [48]: 24.4%
viability, T/C [49]: 19.9%
viability, T/C [50]: 26.2%
viability, T/C [51]: 40%
viability, T/C [52]: 37.9%
viability, T/C [53]: 23.5%
viability, T/C [54]: 27%
viability, T/C [55]: 23.5%
viability, T/C [56]: 23.1%
viability, T/C [57]: 18.1%
viability, T/C [58]: 23.1%
viability, T/C [59]: 21.5%
viability, T/C [60]: 34.4%

Cc1nc(N2CCC3(CC2)COC(C)C3N)c(CO)nc1Sc1ccnc(N)c1Cl (stereo not given) + CNC(C)C(=O)NC1CN(S(=O)(=O)c2cccc(S(=O)(=O)N3CCC4CCC(C(=O)NC(c5ccccc5)c5ccccc5)N4C(=O)C(NC(=O)C(C)NC)C3)c2)CCC2CCC(C(=O)NC(c3ccccc3)c3ccccc3)N2C1=O
IC50 (second compound 0.01 µM): 103 nM
IC50 (second compound 0.0316 µM): < 9.49 nM
IC50 (second compound 0.1 µM): < 9.49 nM
IC50 (second compound 0.316 µM): < 9.49 nM
IC50 (second compound 1 µM): < 9.49 nM
viability, T/C [31]: 46.1%
viability, T/C [32]: 57.3%
viability, T/C [33]: 50.5%
viability, T/C [34]: 35.6%
viability, T/C [35]: 23%
viability, T/C [36]: 24.7%
viability, T/C [37]: 41.4%
viability, T/C [38]: 45.6%
viability, T/C [39]: 40.8%
viability, T/C [40]: 32.7%
viability, T/C [41]: 23.2%
viability, T/C [42]: 18.2%
viability, T/C [43]: 26.6%
viability, T/C [44]: 45.9%
viability, T/C [45]: 20.3%
viability, T/C [46]: 29.9%
viability, T/C [47]: 30.1%
viability, T/C [48]: 18.5%
viability, T/C [49]: 50.1%
viability, T/C [50]: 32%
viability, T/C [51]: 22.1%
viability, T/C [52]: 24.7%
viability, T/C [53]: 23.5%
viability, T/C [54]: 11.4%
viability, T/C [55]: 17.1%
viability, T/C [56]: 16.9%
viability, T/C [57]: 21.7%
viability, T/C [58]: 24.9%
viability, T/C [59]: 19.1%
viability, T/C [60]: 12.2%
